# Experimental data taken from US20250297300A1, “DETECTION, STAGING, MONITORING AND TREATING A DISEASE OR A CONDITION” (SUNBIRD BIO, INC., priority 2021, published 2025).
# Primed or numbered codes have the meaning given here. Where no end group is shown, it is not given here. The star is where a group is joined. 5FAM = O=C1OC2(c3ccc(O)cc3Oc3cc(O)ccc32)c2ccc(C(=O)*)cc21; K(CPQ2) = lysine carrying the CPQ2 quencher; FAM = fluorescent reporter; PEG2′ = not defined here
# What was measured:
# [1] = tested on: proteases in plasma sensed by Probe #102 (cathepsin L); experiment: Inhibitor profiling of Probe #102 cleavage in NASH and healthy plasma; format: biochemical, mice; details: for effect of inhibitor on signal for NASH or healthy samples: Probe #102
# Method: For this experiment, all plasma samples were prepared individually and diluted 1/10e in PBS with inhibitor added directly to the samples. Inhibitor was prepared at 15× concentration to final. Substrates were diluted in DI water at 18 uM, such that the final concentration on the plate would be 6 uM. All samples were prepared such that their last dilution on the plate would not affect the desired final concentration. 10 ul of each individual sample was pipetted into their corresponding wells, and the plate was then spun down in the centrifuge at 1500 RPM for 30 seconds to coat the bottom of each well with the sample. 5 ul of the 18 uM substrate solution was pipetted into each well being used on a 384 well plate, and then the plate was spun down in the centrifuge at 1500 rpm for 30 seconds. The plate was placed immediately in the plate reader at 37° C. for a 30-minute-long fluorescence kinetic read at 485/535 extended gain.
# To assess the proteolytic cleavage pattern of Probe #102, samples were tested using a pool of broad inhibitors for serine, cysteine, threonine, MMP and aspartic protease family members (broad inhibitor) to assess general protease activity, AEBSF for serine proteases, E64 for cysteine proteases, CTSi for broad cathepsin inhibition of cathepsins L,S,K and B, or specific inhibitors for cathepsin K (L00625), for cathepsin L (SID) or cathepsin B (CA074).
# [2] = cited from earlier work
# [3] = tested on: carboxylesterase 1, phospholipase A2 and lipoprotein lipase; experiment: Spiked recombinant enzymes in human plasma with resorufin oleate as substrate; format: biochemical
# [4] = tested on: caspase activity in hepatitis; experiment: Ex vivo FRET probe cleavage in plasma of Jo2 fulminant hepatitis mice; format: biochemical; details: plasma 3 hours after Jo2 injection
# Method: Fulminant hepatitis is induced after injection intraperitoneal of monoclonal antibody anti-CD95 (Jo2, BD biosciences, 4 ug/animal), and mouse plasma samples were collected 3 hours after Jo2 injection.
# COVID-related proteases [5] = experiment: Ex vivo FRET probe cleavage in COVID vs healthy K2EDTA and Lithium Heparin plasma; format: biochemical; details: K2EDTA and Lithium Heparin plasma sets
# [6] = tested on: cathepsin and/or MMP protease activities; experiment: Ex vivo FRET probe cleavage in plasma: NASH progression, regression, healthy mice; format: biochemical; details: K2EDTA plasma at 20 weeks
# Text: Plasma samples were collected from all animals at 20 weeks.
# The probes showing the most differentiation in NASH were linked to cathepsin and/or MMP protease activities.
# NASH-related proteases = experiment: Ex vivo FRET probe cleavage in K2EDTA plasma of NASH (CDAHFD) vs healthy (CD) mice; format: biochemical; details: n=10 and pooled
# Method: All animals were used in accordance with animal care guidelines. Plasma was obtained from these blood samples by centrifugation at 3,500 RPM for 20 min at 4° C. The plasma was stored at −80° C. until it was needed for experimental purposes.
# Samples were mixed with protease substrates and quenchers/reporters in 96-well plates. The 96-well plates were read on a Biotech Synergy H1, using 465,535 excitation/emission settings.
# A single plasma sample was contacted with the probes for each predetermined protease to provide a multiplex assessment of protease activity in the sample.
# COVID-related proteases [7] = experiment: Ex vivo FRET probe cleavage in COVID positive vs negative swab samples; format: biochemical
# Granzyme B = target: T1, Granzyme B (Homo sapiens, UniProt P10144); experiment: Inhibition experiments on Probe #647 signal in COVID swab samples; format: biochemical; details: healthy vs COVID samples, FIG. 39
# T1 construct: from tissue; host or cells: COVID swab samples
# T1 sequence (P10144 21-247): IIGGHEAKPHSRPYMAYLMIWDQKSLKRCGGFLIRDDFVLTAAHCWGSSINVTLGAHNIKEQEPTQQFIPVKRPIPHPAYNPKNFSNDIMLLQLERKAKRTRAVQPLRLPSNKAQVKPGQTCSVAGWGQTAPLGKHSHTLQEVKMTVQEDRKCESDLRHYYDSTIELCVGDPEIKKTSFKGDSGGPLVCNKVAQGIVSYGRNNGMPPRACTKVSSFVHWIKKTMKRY
compound,measurement,setting,value
NCCc1ccc(S(=O)(=O)F)cc1 [AEBSF],"decrease of RFU signal by inhibitor, NASH","[1]; NASH plasma diluted 1/10 in PBS, Probe #102 6 uM",65%
same,"decrease of RFU signal by inhibitor, healthy","[1]; healthy plasma diluted 1/10 in PBS, Probe #102 6 uM",60%
CCCNC(=O)[C@H]1O[C@@H]1C(=O)N[C@H](C(=O)N1CCC[C@H]1C(=O)O)[C@@H](C)CC [CA074],effect of inhibitor on signal for NASH or healthy samples,[1],did not significantly decrease signal
"O=c1[nH]c(-c2ccccc2O)nc2ccccc12 [HPQ, 2-(2″-hydroxyphenyl)-4(3H)-quinazolinone]",solubility in water,[2],strictly insoluble in water
"CC(C)C[C@H](NC(=O)[C@H]1O[C@@H]1C(=O)O)C(=O)NCCCCN=C(N)N [Probe E64, E64]",effect of inhibitor on signal for NASH or healthy samples,[1],decreased NASH signal significantly
CN1CCN(c2nc(-c3ccc(C(=O)NC4(C(=O)NCC#N)CCCCC4)cc3)cs2)CC1 [Probe L006235],effect of inhibitor on signal for NASH or healthy samples,[1],did not significantly decrease signal
CCCC(=O)O [butyrate],suitability as substrate for enzyme detection,[3],promising for detection of broad range of enzymes
"Probe #8: Caspase centric probe (GVDVADGK; not fully specified; 5-FAM, CPQ2 quencher, PEG2, D-Lys-D-Lys-GC)",differentiation between healthy and Jo2 samples,[4],show contrast that is specific and sensitive to the Jo2 model
"Probe #12: Caspase centric probe (GDEVDGK; not fully specified; 5-FAM, CPQ2 quencher, PEG2, D-Lys-D-Lys-GC)",differentiation between healthy and Jo2 samples,[4],show contrast that is specific and sensitive to the Jo2 model
"Probe #18: a Neutrophil elastase substrate (GAAPVGK; also: 5-FAM, CPQ2 quencher, PEG2-kk-GC, places not given here)",differential cleavage between COVID and healthy samples,COVID-related proteases [5],demonstrated contrast in both sets
"Probe #84: a Furin substrate (GRVKRGLAGK; also: 5-FAM, CPQ2 quencher, PEG2-kk-GC, places not given here)",differential cleavage between COVID and healthy samples,COVID-related proteases [5],demonstrated contrast in both sets
Probe #96: FRET peptide probe of Table 1 ({FAM}-GRPLALWESQG-{K(CPQ2)-PEG2′-dK-Gly-Cys}),"differentiation among healthy, regression and NASH samples",[6],can differentiate
Probe #102: a CTSL sensing probe; FRET peptide probe with fluorescent reporter and quencher ({FAM}-GKPILFFRLKG-{K(CPQ2)-PEG2′-dK-dK-Gly-Cys}),attribution of measured rate of fluorescence increase,NASH-related proteases,can be ascribed to protease activity and to NASH disease
same,protease to whose activity the probe responds,"[1]; from inhibitor experiments, FIG. 30",specifically responds to the activity of cathepsin L (CTSL)
same,"differentiation among healthy, regression and NASH samples",[6],can differentiate
Probe #428: FRET peptide probe of Table 1 ({FAM}-GDRRKKLTQG-{K(CPQ2)-PEG2′-dK-dK-Gly-Cys}),"differentiation among healthy, regression and NASH samples",[6],can differentiate
"Probe #462: a MMP8 substrate (GKKAKRNALG; also: FAM, K(CPQ2), PEG2, D-Lys-D-Lys-GC, places not given here)",differential cleavage between COVID and healthy samples,COVID-related proteases [5],demonstrated contrast in both sets
Probe #492: FRET peptide probe of Table 1 ({FAM}-GQRANSIRVTWG-{K(CPQ2)-PEG2′-dK-dK-Gly-Cys}),attribution of measured rate of fluorescence increase,NASH-related proteases,can be ascribed to protease activity and to NASH disease
same,"differentiation among healthy, regression and NASH samples",[6],can differentiate
Probe #520: FRET peptide probe of Table 1 (5FAM-GKPISLISSG-{K(CPQ2)-PEG2′-Gly-Cys}),"differentiation among healthy, regression and NASH samples",[6],can differentiate
"Probe #647: Caspase centric probe; signal measures the activity of protease Granzyme B (GAIEPDSGG; also: 5FAM, Lys(CPQ2), PEG2, D-Lys-D-Lys, GC-NH2, places not given here)","number of active samples, COVID+",COVID-related proteases [7]; adjusted RFU across timepoints,7 samples
same,"number of active samples, COVID-",COVID-related proteases [7]; adjusted RFU across timepoints,1 samples
same,differentiation between COVID+ and COVID- samples,COVID-related proteases [7]; swabs in saline,key differentiator
same,differentiation between healthy and Jo2 samples,[4],show contrast that is specific and sensitive to the Jo2 model
same,protease whose activity the probe signal measures,Granzyme B,measures the activity of protease Granzyme B
same,"differentiation among healthy, regression and NASH samples",[6],can differentiate
resorufin oleate,suitability as substrate for enzyme detection,[3],promising for detection of broad range of enzymes
